In paper PMC4394749 (Journal of medicinal chemistry, 2015):

Tests used:
KB cells = test: Cell cycle analysis by flow cytometry; assay type: cell-based, human; conditions: 6 or 24 h, PXL 0.02 µM, 4 0.5 µM, 8 2 µM
KB-VIN cells = test: Cell cycle analysis by flow cytometry; assay type: cell-based, human; conditions: 6 or 24 h, PXL 3 µM, 4 0.5 µM, 8 2 µM
[1] = molecular target: MCF-7 (estrogen-receptor-positive, HER2-negative breast cancer); conditions: read-out: IC50 MCF-7; SRB; compound marked 'See ref [15]'; cited from earlier work
[2] = tested on: KB-VIN (P-gp-overexpressing MDR subline of KB); conditions: read-out: IC50 KB-VIN; SRB; compound marked 'See ref [15]'; cited from earlier work
[3] = tested on: MDA-MB-231 (triple-negative breast cancer); conditions: read-out: IC50 MDA-MB-231; SRB; compound marked 'See ref [15]'; cited from earlier work
PC-3 cells [4] = test: Cell cycle analysis by flow cytometry; assay type: cell-based, human; conditions: 2 µM, 24 h
[5] = tested on: HCT-8 (human colon adenocarcinoma); conditions: read-out: IC50 HCT-8; SRB; compound marked 'See ref [15]'; cited from earlier work
[6] = tested on: KB (epidermoid carcinoma of the nasopharynx); conditions: read-out: IC50 KB; SRB; compound marked 'See ref [15]'; cited from earlier work
A549 (lung carcinoma) = conditions: read-out: IC50 A549; SRB; compound marked 'See ref [15]'; cited from earlier work
[7] = tested on: SK-BR-3 (HER2-overexpressing breast cancer); conditions: read-out: IC50 SK-BR3; SRB; compound marked 'See ref [15]'; cited from earlier work
[8] = tested on: HepG2 (hepatocellular carcinoma); conditions: read-out: IC50 Hep-G2; SRB; compound marked 'See ref [15]'; cited from earlier work
PC-3 (prostate cancer) = conditions: read-out: IC50 PC-3; SRB; compound marked 'See ref [15]'; cited from earlier work
PC-3 cells [9] = test: Immunofluorescence staining of microtubules in PC-3 cells; assay type: cell-based, human; conditions: PC-3, 24 h
[10] = molecular target: ZR-75-1 (estrogen-receptor-positive, HER2-positive breast cancer); conditions: read-out: IC50 ZR-75-1; SRB; compound marked 'See ref [15]'; cited from earlier work

## CCC1=C(O)c2c(oc(-c3csc4ccccc34)cc2=O)C(CC)(CC)C1=O [Compound 4, 2-(benzo[b]thiophene-3′-yl)-6,8,8-triethyldesmosdumotin B]
KB cells
  effect on cell cycle distribution: Accumulation of G2/M phase as well as S phase cells
KB-VIN cells
  effect on cell cycle distribution: Accumulation of G2/M phase as well as S phase cells
[1]
  IC50: 720 nM
[2]
  IC50: 70 nM
[3]
  IC50: 700 nM
PC-3 cells [4]
  effect on cell cycle distribution: efficiently induced accumulation of G2/M phase cells
[5]
  IC50: 130 nM
[6]
  IC50: 80 nM
A549 (lung carcinoma)
  IC50: 60 nM
[7]
  IC50: 500 nM
[8]
  IC50: 130 nM
PC-3 (prostate cancer)
  IC50: 160 nM
PC-3 cells [9]; equitoxic concentrations: 0.2 µM 4, 0.2 µM CA-4, 5 µM VIN, 0.2 µM PXL
  microtubule morphology: induced depolymerization of cytosolic microtubules as well monopolar (arrow heads) or multipolar spindle formations in the G2/M-phase
PC-3 cells [9]; compounds 0.2, 2 or 20 µM, CA-4 0.002 or 20 µM
  dose-dependent effects on microtubule morphology: Dose-dependent disruption of both interphase microtubules and spindles
[10]
  IC50: 850 nM
